Among the data in patent publication US20100126880A1 (priority 2006, published 2010) are binding constant values, retold here.

In this test the test system is dsDNA.

Description: Intercalation properties of EDOT-ND-Os were further studied by competitive displacement assay.

On to “N[3-(imidazol-1-yl)propyl]-N′-[8-((2,3-dihydrothieno[3,4-b][1,4]dioxin-3-yl)methoxy)-3,6-dioxaoctyl]-1,4,5,8-naphthalenetetracarboxydiimide complex with Os(bpy)2Cl2 [EDOT-ND-Os]”, for which the binding constant is recorded as 8×10^4.
